This note sets out measurements from patent US20200157048A1, “(2E,4E)-5-PHENYL-PENTA-2,4-DIEN-1-ONE DERIVATIVE” (BIOWAY., INC, priority 2018, published 2020).

Entries after “also recorded” stand apart in the source; their conditions may differ.

Holding throughout (type): cell-based, Human
Common to all, as to conditions: steatosis-induced (OA/PA) Huh-7 cells; 10 μM; 24 hours

The test system of one experiment is Fas mRNA. The experiment in a line: qRT-PCR Fas mRNA level in steatosis-induced Huh-7 cells. On the procedure:
(§1) In Experimental Example 5, the Huh-7 cells were plated in 6 wells at 4×10^5 cells/mL and incubated under an atmosphere containing 5% CO2 at 37° C.
(§2) One day later, the cell density approached about 80 to 90%. The medium was changed to an FBS-free RPMI1640 medium, and incubated under an atmosphere containing 5% CO2 at 37° C. for 24 hours.
(§3) Huh-7 cells of each well, excluding control cells, were pretreated with an OA/PA mixture for one hour to induce steatosis. The control cells were pretreated with 1% FA-free BSA.
(§4) Each well was treated with 10 μM of a test compound, and then the cells were incubated for 24 hours. The control cells and OA/PA-treated cells were treated with DMSO. Cells of a positive control were treated with 10 μM of resveratrol, 10 μM of piperine, and 10 μM of YU2014. The medium was entirely aspirated, and the cells were washed with PBS (phosphate buffered saline, Corning, Manassas, Va., USA) two times.
(§5) Total RNA was extracted using a RNeasy RNA isolation kit (Qiagen, Hilden, Germany).
(§6) 10 μL of β-mercaptoethanol (Sigma-Aldrich) per 1 mL of lysis buffer was added, thereby preparing an RNA lysis buffer. […]
(§7) An RNA concentration was measured at O.D. 260 nm using a nanophotometer N60 (Implen, Munich, Germany). The concentration and purity of RNA were measured at O.D. 260/280 nm and calculated as a ratio. […]
(§8) Quantitative analyses for the genes in Table 3 were performed.

The test system of a further experiment is Fgf21 mRNA. In words: qRT-PCR Fgf21 mRNA level in steatosis-induced Huh-7 cells. The procedure: as §1, §2, §3, §4, §5, §6, §7, §8
In general terms: Real-time PCR tracks product formation cycle by cycle.

For another experiment, the system named is Pparα mRNA. The experiment in a line: qRT-PCR Pparα mRNA level in steatosis-induced Huh-7 cells. The procedure: as §1, §2, §3, §4, §5, §6, §7, §8

`CSc1ccc(/C=C/C=C/C(=O)N2CCCCC2)cc1` [YU2014, (2E,4E)-5-(4-(methylthio)phenyl)-1-(piperidine-1-yl)penta-2,4-dien-1-one]: the “Fas mRNA level (FIG. 13)” value with Fas mRNA is “reduce”. Also, the “Fgf21 mRNA level (FIG. 12)” value in the experiment with Fgf21 mRNA is “almost no increase; also recorded: no effect”. In addition, the “Pparα mRNA level (FIG. 10)” value in the experiment with Pparα mRNA was “hardly increased; also recorded: no effect”.
